Data published in patent US20030118649A1, “Drug delivery devices and methods” (priority 2001, published 2003).

Legend:
[1] = Fluorescence imaging of doxorubicin distribution in rabbit livers after millirod implantation; conditions: in vivo
Method: In accordance with the present invention, we developed a fluorescence imaging method to analyze doxorubicin distribution in rabbit liver tissues. First, we determined the calibration curve to correlate fluorescence intensity with doxorubicin concentration in liver tissues. Second, we estimated the sensitivity limit (0.6 μg/g of liver tissue) for doxorubicin detection by this method. This value is well below the cytotoxic concentrations of doxorubicin to VX-2 cells (˜6.4 μg/g). (Ridge, J. A., Collin, C., Bading, J. R., Hancock, C., Conti, P. S., Daly, J. M. and Raaf, J. H. (1988) Cancer Res 48(16), 4584-7. Third, we used this method to quantify the dynamics of drug distribution in ablated and non-ablated rabbit livers over time. The detailed experimental procedure of the fluorescence imaging method is described below.
FIG. 14 compares the 2D doxorubicin distribution profiles between non-ablated and thermoablated liver tissues. In this set of experiments, a monolithic millirod with burst release kinetics (millirod (a) in FIG. 2) was implanted in either non-ablated or thermoablated livers. […] White dashed lines in the figures represent the ablated-normal tissue boundary, which was obtained by comparing the fluorescence image with an optical image of histology slides where this boundary is well-defined (see next section).

[2] = Structural integrity of doxorubicin after millirod fabrication (NMR); format: physicochemical; conditions: compression-heat molding, 90° C., 2 hours
Method: These devices are prepared as a monolithic system using a compression-heat-molding procedure that has been developed. (Qian, F., Szymanski, A. and Gao, J. (2001) J. Biomed. Mater. Res. 55, 512-522.) Briefly, doxorubicin solution (2 mg/mL, also containing 0.9% NaCl) from Bedford Laboratories is first dialyzed in distilled water to remove the NaCl. […] The well-mixed particles are placed in a Teflon tube and molded into a polymer millirod at a compression pressure of 4.6×10^6 Pa and a fabrication temperature at 90° C. for 2 hours.
Determination of the structural integrity of released doxorubicin. Released doxorubicin in PBS is desalted by gel filtration column chromatography (G-10 column, Pharmacia). Samples are lyophilized and characterized by ^1H and ^13C nuclear magnetic resonance (NMR) and mass spectrometry to examine their structural integrity. In NMR analysis, lyophilized agents are dissolved in deuterated methanol and spectrum will be obtained on a 300 MHz ^1H NMR instrument (Bruker). The chemical shifts of the released agents are compared to the pure compound to detect possible structural decomposition.

VX-2 cells = conditions: Ridge et al. 1988; cited from earlier work

COc1cccc2c1C(=O)c1c(O)c3c(c(O)c1C2=O)C[C@@](O)(C(=O)CO)C[C@@H]3O[C@H]1C[C@H](N)[C@H](O)[C@H](C)O1 [doxorubicin]
concentration at 24 h [1]: 50000 ng/g | structure of doxorubicin after fabrication [2]: remained intact | cytotoxic concentration of doxorubicin (VX-2 cells): ~6.4 µg/g
